The source of these data is patent publication US20260297070A1, “CYCLIC [COMPOUND LEFT OUT] WRN INHIBITORS” (Nimbus Wadjet, Inc., priority 2023, published 2026).

pIC50: −log10 of the molar value. Some results are limits rather than exact numbers.

T1 sequence (Q14191 with tags, fused parts or gaps L1074F limits assumed): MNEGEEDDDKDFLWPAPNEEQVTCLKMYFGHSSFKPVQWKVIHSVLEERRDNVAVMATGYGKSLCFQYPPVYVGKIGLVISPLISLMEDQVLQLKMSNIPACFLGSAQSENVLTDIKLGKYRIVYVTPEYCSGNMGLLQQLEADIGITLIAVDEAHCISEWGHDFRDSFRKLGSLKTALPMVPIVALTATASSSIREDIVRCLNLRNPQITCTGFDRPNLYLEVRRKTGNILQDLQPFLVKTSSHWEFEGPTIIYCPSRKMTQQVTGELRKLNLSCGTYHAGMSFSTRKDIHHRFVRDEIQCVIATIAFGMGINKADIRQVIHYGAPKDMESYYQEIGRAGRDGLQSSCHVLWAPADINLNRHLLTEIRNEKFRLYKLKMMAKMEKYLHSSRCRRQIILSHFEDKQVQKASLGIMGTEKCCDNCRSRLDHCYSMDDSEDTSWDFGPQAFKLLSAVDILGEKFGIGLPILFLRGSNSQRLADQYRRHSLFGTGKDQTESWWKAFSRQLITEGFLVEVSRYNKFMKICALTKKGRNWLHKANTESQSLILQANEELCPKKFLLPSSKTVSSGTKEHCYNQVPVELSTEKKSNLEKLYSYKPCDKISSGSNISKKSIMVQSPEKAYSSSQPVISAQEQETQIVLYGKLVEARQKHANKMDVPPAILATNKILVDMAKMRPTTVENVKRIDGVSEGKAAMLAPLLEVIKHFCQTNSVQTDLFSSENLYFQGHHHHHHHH

The experiment addresses T1, human Werner helicase (WRN-BV08, Uniprot Q14191, amino acids 517-1235 with L1074F point mutation) (Homo sapiens, UniProt Q14191, L1074F).
T1 construct: Uniprot Q14191, amino acids 517-1235 with L1074F point mutation; TEV-cleavable 8×His (C, cleaved yes); made in house; host or cells: Sf9 insect cells (baculovirus)
The experiment in a line: WRN (BV08) ADP-Glo Assay. The conditions noted are these: 0.15 nM WRN, 5 μM ATP, 0.1 nM DNA duplex, 15 min preincubation, 60 min at 25° C., pH 7.5, 1% DMSO; read-out: ADP-Glo_hWRN_IC50. The experiment is classed as biochemical. An outline of the steps: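 ADP produced by WRN helicase fragment 517-1235 (L1074F, baculovirus/Sf9, untagged) read by ADP-Glo luminescence after 60 min at 25 °C with 5 μM ATP and 0.1 nM duplex DNA, following 15 min compound preincubation. Final enzyme 0.15 nM in Bicine pH 7.5 buffer, 1% DMSO; 20 μM NSC-617145 defined full inhibition.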
(In general: ADP-Glo turns the ADP formed in a reaction into a luminescent signal.)
As to `O=C(C1CCc2cc(Br)ccc2O1)N(Cc1ccncc1)C1C=CS(=O)(=O)C1` (stereo not shown) [I-678, 6-bromo-N-(1,1-dioxo-2,3-dihydro-1lambda6-thiophen-3-yl)-N-[(pyridin-4-yl)methyl]-3,4-dihydro-2H-1-benzopyran-2-carboxamide], the pIC50 was less than 4.30.

For the compound `CN(C)C(C(=O)N(Cc1ccnc(C(C)(C)O)c1)C1C=CS(=O)(=O)C1)c1ccc(-c2ccc(F)c(F)c2)cc1F` (stereo not shown) [I-307, 2-(dimethylamino)-N-(1,1-dioxo-2,3-dihydro-1lambda6-thiophen-3-yl)-N-{[2-(2-hydroxypropan-2-yl)pyridin-4-yl]methyl}-2-{3,3′,4′-trifluoro-[1,1′-biphenyl]-4-yl}acetamide], the pIC50 is 4.30 to 5.00.

Turning to `O=C(Cn1cc(C2CC2)cn1)N(Cc1ccncc1)C1C=CS(=O)(=O)C1` (stereo not shown) [I-429, 2-(4-cyclopropyl-1H-pyrazol-1-yl)-N-(1,1-dioxo-2,3-dihydro-1lambda6-thiophen-3-yl)-N-[(pyridin-4-yl)methyl]acetamide], the pIC50 was less than 4.30.

As to `CC(C)(O)c1cc(CN(C(=O)Cc2ncc(-c3cc(F)c(F)c(F)c3)s2)C2C=CS(=O)(=O)C2)ccn1` (single isomer, unassigned) [I-794], the pIC50 is 5.30 to 6.30.

For the compound `O=C(Cc1ccc(-c2ccc(F)cc2C(F)F)cc1)N(Cc1ccncc1)C1C=CS(=O)(=O)C1` (stereo not shown) [I-334, 2-[2′-(difluoromethyl)-4′-fluoro-[1,1′-biphenyl]-4-yl]-N-(1,1-dioxo-2,3-dihydro-1lambda6-thiophen-3-yl)-N-[(pyridin-4-yl)methyl]acetamide], the pIC50 was 4.30 to 5.00.

With `CC(C)(O)c1cc(CN(C(=O)C(c2ccc(-c3ccc(F)c(F)c3)cc2F)n2ccnn2)C2C=CS(=O)(=O)C2)ccn1` (single isomer, unassigned) [I-801, (2R*)-N-[(3R**)-1,1-dioxo-2,3-dihydro-1lambda6-thiophen-3-yl]-N-{[2-(2-hydroxypropan-2-yl)pyridin-4-yl]methyl}-2-(1H-1,2,3-triazol-1-yl)-2-{3,3′,4′-trifluoro-[1,1′-biphenyl]-4-yl}acetamide], the pIC50 is more than 6.30.

Turning to `O=C(Cc1ccc(-n2cccc2)cc1)N(Cc1ccccc1)C1C=CS(=O)(=O)C1` (single isomer, unassigned) [I-488], the pIC50 is less than 4.30.

With `CC(C)(O)c1cc(CN(C(=O)Cc2ccc(-c3ccc(F)cc3)cc2Cl)C2C=CS(=O)(=O)C2)ccn1` (stereo not shown) [I-101, 2-{3-chloro-4′-fluoro-[1,1′-biphenyl]-4-yl}-N-(1,1-dioxo-2,3-dihydro-1lambda6-thiophen-3-yl)-N-{[2-(2-hydroxypropan-2-yl)pyridin-4-yl]methyl}acetamide], the pIC50 is 5.30 to 6.30.

`COc1cc(CN(C(=O)C(OC2CS(=O)(=O)C2)c2ccc(-c3ccc(F)c(F)c3)cc2F)[C@@H]2C=CS(=O)(=O)C2)ccn1` (single isomer, unassigned) [I-835, (2R*)-2-[(1,1-dioxo-1lambda6-thietan-3-yl)oxy]-N-[(3R)-1,1-dioxo-2,3-dihydro-1lambda6-thiophen-3-yl]-N-[(2-methoxypyridin-4-yl)methyl]-2-{3,3′,4′-trifluoro-[1,1′-biphenyl]-4-yl}acetamide]: the pIC50 is 5.00 to 5.30.

For `CC(C)(O)c1cc(CN(C(=O)Cc2ccc(C(F)(F)F)cc2F)C2C=CS(=O)(=O)C2)ccn1` (stereo not shown) [I-128, N-(1,1-dioxo-2,3-dihydro-1lambda6-thiophen-3-yl)-2-[2-fluoro-4-(trifluoromethyl)phenyl]-N-{[2-(2-hydroxypropan-2-yl)pyridin-4-yl]methyl}acetamide], the pIC50 is 5.30 to 6.30.

On to `COc1cccc(-c2ccc(CC(=O)N(Cc3ccncc3)C3C=CS(=O)(=O)C3)cc2)c1` (stereo not shown) [I-556, N-(1,1-dioxo-2,3-dihydro-1lambda6-thiophen-3-yl)-2-{3′-methoxy-[1,1′-biphenyl]-4-yl}-N-[(pyridin-4-yl)methyl]acetamide], for which the pIC50 is less than 4.30.

On to `CN(C)C(=O)C(C(=O)N(Cc1ccnc(C(C)(C)O)c1)C1C=CS(=O)(=O)C1)c1ccc(-c2ccc(F)cc2)cc1F` (stereo not shown) [I-21, 2-{3,4′-difluoro-[1,1′-biphenyl]-4-yl}-N-(1,1-dioxo-2,3-dihydro-1lambda6-thiophen-3-yl)-N-{[2-(2-hydroxypropan-2-yl)pyridin-4-yl]methyl}-N′,N′-dimethylpropanediamide], for which the pIC50 is more than 6.30.

With `CC(C)(O)c1cc(CN(C(=O)Cn2cc(-c3cc(F)c(F)c(F)c3)cn2)C2C=CS(=O)(=O)C2)ccn1` (single isomer, unassigned) [I-1], the pIC50 was more than 6.30.

For the compound `O=C(C1C2CCC1C2)N(Cc1ccncc1)C1C=CS(=O)(=O)C1` (stereo not shown) [I-619, N-(1,1-dioxo-2,3-dihydro-1lambda6-thiophen-3-yl)-N-[(pyridin-4-yl)methyl]bicyclo[2.1.1]hexane-5-carboxamide], the pIC50 is less than 4.30.

As for `O=C(Cc1ccc(-c2ccc(F)cc2)cc1)N(Cc1nc(C2CC2)cs1)C1C=CS(=O)(=O)C1` (stereo not shown) [I-88, N-[(4-cyclopropyl-1,3-thiazol-2-yl)methyl]-N-(1,1-dioxo-2,3-dihydro-1lambda6-thiophen-3-yl)-2-{4′-fluoro-[1,1′-biphenyl]-4-yl}acetamide], the pIC50 is 5.30 to 6.30.

For `CC(C)Oc1ccc(CC(=O)N(Cc2ccncc2)C2C=CS(=O)(=O)C2)cc1` (stereo not shown) [I-365, N-(1,1-dioxo-2,3-dihydro-1lambda6-thiophen-3-yl)-2-[4-(propan-2-yloxy)phenyl]-N-[(pyridin-4-yl)methyl]acetamide], the pIC50 was 4.30 to 5.00.

Take `COc1ccc2c(c1)CC(C(=O)N(Cc1ccncc1)C1C=CS(=O)(=O)C1)CO2` (stereo not shown) [I-756, N-(1,1-dioxo-2,3-dihydro-1lambda6-thiophen-3-yl)-6-methoxy-N-[(pyridin-4-yl)methyl]-3,4-dihydro-2H-1-benzopyran-3-carboxamide]: the pIC50 is less than 4.30.

Take `COc1cc(CN(C(=O)Cn2cc3cc(C(F)(F)C(F)(F)F)ccc3n2)[C@@H]2C=CS(=O)(=O)C2)ccn1` [I-771, N-[(3R)-1,1-dioxo-2,3-dihydro-1lambda6-thiophen-3-yl]-N-[(2-methoxypyridin-4-yl)methyl]-2-[5-(1,1,2,2,2-pentafluoroethyl)-2H-indazol-2-yl]acetamide]: the pIC50 is more than 6.30.

As to `O=C(Cc1ccc(-n2cccc2)cn1)N(Cc1ccncc1)C1C=CS(=O)(=O)C1` (stereo not shown) [I-319, N-(1,1-dioxo-2,3-dihydro-1lambda6-thiophen-3-yl)-N-[(pyridin-4-yl)methyl]-2-[5-(1H-pyrrol-1-yl)pyridin-2-yl]acetamide], the pIC50 is 4.30 to 5.00.

As for `CC(C)(O)c1cc(CN(C(=O)Cn2cc3cc(S(F)(F)(F)(F)F)ccc3n2)[C@@H]2C=CS(=O)(=O)C2)ccn1` [I-7, (R)—N-(1,1-dioxido-2,3-dihydrothiophen-3-yl)-N-((2-(2-hydroxypropan-2-yl)pyridin-4-yl)methyl)-2-(5-(pentafluoro-λ^6-sulfaneyl)-2H-indazol-2-yl)acetamide], the pIC50 was more than 6.30.

Consider `O=C(Cn1cc(Cl)cn1)N(Cc1ccncc1)C1C=CS(=O)(=O)C1` (stereo not shown) [I-427, 2-(4-chloro-1H-pyrazol-1-yl)-N-(1,1-dioxo-2,3-dihydro-1lambda6-thiophen-3-yl)-N-[(pyridin-4-yl)methyl]acetamide], for which the pIC50 was less than 4.30.

As to `O=C(Cn1cc(Br)cn1)N(Cc1ccncc1)C1C=CS(=O)(=O)C1` (stereo not shown) [I-408, 2-(4-bromo-1H-pyrazol-1-yl)-N-(1,1-dioxo-2,3-dihydro-1lambda6-thiophen-3-yl)-N-[(pyridin-4-yl)methyl]acetamide], the pIC50 is less than 4.30.
